Compound: CC1=C(C(=NN1)C)CC2=C(C3=C(S2)N(C(=O)N(C3=O)C)CC(C)C)C(=O)N4C[C@@H](CO4)O + CC(=O)c1c(C)c2cnc(Nc3ccc(N4CCNCC4)cn3)nc2n(C2CCCC2)c1=O [Palbociclib] (partner 0.5 µM)
Assay: relative viability (nuclei count vs DMSO), 5 days (fraction); higher = more cells survive
Settings: first compound 0.0025 µM
Procedure, shortened: (§1)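 Relative viability divides the nuclei count in treated wells by that in vehicle wells. Lung cancer cell lines were seeded in 1536-well plates, dosed by pin tool the next day, and fixed and stained after 5 days in one step with final 0.05% Triton X-100, 1% formaldehyde and 1 ug/ml Hoechst. Dosing was a single drug or a fixed anchor-drug dose plus five library-drug doses (not always all listed) in √10 steps, and values are medians of duplicate plates imaged at 4×.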

Cell Line	relative viability
EKVX	0.475
LC-2-ad	0.46
NCI-H1944	0.328
NCI-H1975	0.624
RERF-LC-KJ	1.12
ABC-1	0.72
NCI-H358	0.144
NCI-H650	0.345
PC-3 [JPC-3]	0.528

Same assay, conditions: first compound 0.007906 µM

Cell Line	relative viability
EKVX	0.44
LC-2-ad	0.518
NCI-H1944	0.335
NCI-H1975	0.706
RERF-LC-KJ	1.11
ABC-1	0.445
NCI-H358	0.132
NCI-H650	0.353
PC-3 [JPC-3]	0.502

Same assay, conditions: first compound 0.025 µM

Cell Line	relative viability
EKVX	0.417
LC-2-ad	0.456
NCI-H1944	0.337
NCI-H1975	0.66
RERF-LC-KJ	1.04
NCI-H358	0.12
NCI-H650	0.274
PC-3 [JPC-3]	0.539

Same assay, conditions: first compound 0.07906 µM

Cell Line	relative viability
EKVX	0.368
LC-2-ad	0.467
NCI-H1944	0.314
NCI-H1975	0.623
RERF-LC-KJ	1.06
ABC-1	0.638
NCI-H358	0.121
NCI-H650	0.334
PC-3 [JPC-3]	0.533

Same assay, conditions: first compound 0.25 µM

Cell Line	relative viability
EKVX	0.39
LC-2-ad	0.55
NCI-H1944	0.363
NCI-H1975	0.699
RERF-LC-KJ	1.12
ABC-1	0.729
NCI-H358	0.14
NCI-H650	0.347
PC-3 [JPC-3]	0.524

Compound: Cc1ccccc1C(C(=O)NC1CCCCC1)N(C(=O)Cn1ccnc1C)c1cccc(F)c1 [IDH-C35] + N=C(N)NC(=N)NCCc1ccccc1 [Phenformin] (partner 250 µM)
Assay: as above
Settings: first compound 0.08 µM
Procedure, shortened: as §1

Cell Line	relative viability
EKVX	0.245
LC-2-ad	0.571
NCI-H1944	0.212
NCI-H1975	0.411
RERF-LC-KJ	0.415
ABC-1	0.261
NCI-H358	0.366
NCI-H650	0.453
PC-3 [JPC-3]	0.471

Same assay, conditions: first compound 0.253 µM

Cell Line	relative viability
EKVX	0.219
LC-2-ad	0.585
NCI-H1944	0.183
NCI-H1975	0.406
RERF-LC-KJ	0.443
ABC-1	0.218
NCI-H358	0.33
NCI-H650	0.465
PC-3 [JPC-3]	0.447

Same assay, conditions: first compound 0.8 µM

Cell Line	relative viability
EKVX	0.227
LC-2-ad	0.603
NCI-H1944	0.202
NCI-H1975	0.401
RERF-LC-KJ	0.419
ABC-1	0.247
NCI-H358	0.337
NCI-H650	0.505
PC-3 [JPC-3]	0.521

Same assay, conditions: first compound 2.53 µM

Cell Line	relative viability
EKVX	0.229
NCI-H1944	0.18
NCI-H1975	0.425
RERF-LC-KJ	0.456
ABC-1	0.235
NCI-H358	0.388
PC-3 [JPC-3]	0.509

Same assay, conditions: first compound 8 µM

Cell Line	relative viability
EKVX	0.189
LC-2-ad	0.604
NCI-H1944	0.192
NCI-H1975	0.401
RERF-LC-KJ	0.403
ABC-1	0.23
NCI-H358	0.328
NCI-H650	0.421
PC-3 [JPC-3]	0.453

Compound: CC1=C(C(=NN1)C)CC2=C(C3=C(S2)N(C(=O)N(C3=O)C)CC(C)C)C(=O)N4C[C@@H](CO4)O + COc1cccc2cc(-c3nc([C@H]4CC[C@H](C(=O)O)CC4)n4ncnc(N)c34)[nH]c12 [OSI-027] (partner 0.5 µM)
Assay: as above
Settings: first compound 0.0025 µM
Procedure, shortened: as §1

Cell Line	relative viability
EKVX	0.677
LC-2-ad	0.952
NCI-H1944	0.434
NCI-H1975	0.751
RERF-LC-KJ	0.589
ABC-1	0.55
NCI-H358	0.679
NCI-H650	0.637
PC-3 [JPC-3]	0.763

Same assay, conditions: first compound 0.007906 µM

Cell Line	relative viability
EKVX	0.712
LC-2-ad	0.782
NCI-H1944	0.45
NCI-H1975	0.648
RERF-LC-KJ	0.519
ABC-1	0.459
NCI-H358	0.724
NCI-H650	0.509
PC-3 [JPC-3]	0.679

Same assay, conditions: first compound 0.025 µM

Cell Line	relative viability
EKVX	0.666
LC-2-ad	0.973
NCI-H1944	0.416
NCI-H1975	0.802
RERF-LC-KJ	0.598
ABC-1	0.583
NCI-H358	0.845
NCI-H650	0.501
PC-3 [JPC-3]	0.755

Same assay, conditions: first compound 0.07906 µM

Cell Line	relative viability
EKVX	0.716
LC-2-ad	0.934
NCI-H1944	0.427
NCI-H1975	0.804
RERF-LC-KJ	0.681
ABC-1	0.517
NCI-H358	0.895
NCI-H650	0.451
PC-3 [JPC-3]	0.785

Same assay, conditions: first compound 0.25 µM

Cell Line	relative viability
EKVX	0.592
LC-2-ad	0.821
NCI-H1944	0.391
NCI-H1975	0.879
RERF-LC-KJ	0.627
ABC-1	0.52
NCI-H358	0.854
NCI-H650	0.647
PC-3 [JPC-3]	0.859

Compound: CC1=C(C(=NN1)C)CC2=C(C3=C(S2)N(C(=O)N(C3=O)C)CC(C)C)C(=O)N4C[C@@H](CO4)O + N=C(N)NC(=N)NCCc1ccccc1 [Phenformin] (partner 250 µM)
Assay: as above
Settings: first compound 0.0025 µM
Procedure, shortened: as §1

Cell Line	relative viability
EKVX	0.241
LC-2-ad	0.604
NCI-H1944	0.184
NCI-H1975	0.401
RERF-LC-KJ	0.434
ABC-1	0.18
NCI-H358	0.35
NCI-H650	0.499
PC-3 [JPC-3]	0.467

Same assay, conditions: first compound 0.007906 µM

Cell Line	relative viability
EKVX	0.224
LC-2-ad	0.59
NCI-H1944	0.222
NCI-H1975	0.426
RERF-LC-KJ	0.46
ABC-1	0.174
NCI-H358	0.395
NCI-H650	0.431
PC-3 [JPC-3]	0.461

Same assay, conditions: first compound 0.025 µM

Cell Line	relative viability
EKVX	0.233
LC-2-ad	0.528
NCI-H1944	0.186
NCI-H1975	0.401
RERF-LC-KJ	0.431
ABC-1	0.173
NCI-H358	0.337
NCI-H650	0.4
PC-3 [JPC-3]	0.477

Same assay, conditions: first compound 0.07906 µM

Cell Line	relative viability
EKVX	0.243
LC-2-ad	0.573
NCI-H1944	0.195
NCI-H1975	0.389
RERF-LC-KJ	0.428
ABC-1	0.186
NCI-H358	0.311
NCI-H650	0.458
PC-3 [JPC-3]	0.461

Same assay, conditions: first compound 0.25 µM

Cell Line	relative viability
EKVX	0.227
LC-2-ad	0.648
NCI-H1944	0.175
NCI-H1975	0.376
RERF-LC-KJ	0.481
ABC-1	0.214
NCI-H358	0.36
NCI-H650	0.472
PC-3 [JPC-3]	0.447
